# From US20040081675A1, “Cosmetic formulations containing flavonoid derivatives” (priority 2001, published 2004)
# Assays:
# [1] = Inherent colour of the substance; format: physicochemical
# Source text: The weak inherent colour is, for example, a major advantage if an inherent colour of the ingredients is undesired in the products for aesthetic reasons.
# [2] = format: physicochemical
# Source text: The invention furthermore relates to the stabilisation of UV filters. A known and effective class of light-protection filter substances is formed by the dibenzoylmethane derivatives. However, it is disadvantageous that these substances are decomposed very easily by UV light and their protective properties are thus lost. An example of a commercially available light-protection filter from this class of compounds which may be mentioned is 4-(tert-butyl)-4′-methoxydibenzoylmethane, which has the structure shown below. [drawing 22]
# Tiliroside can be used for stabilisation here as the pure substance or in the form of a plant extract. In a preferred embodiment, tiliroside is used in the form of a plant extract, a purified plant extract or in the form of the pure substance prepared from the plant extract.
# [3] = UV absorption properties (absorption maximum, shoulder, absorption coefficient); format: physicochemical
# Source text: Tiliroside absorbs in the UV-B region, i.e. in the wavelength range between 290 and 320 nm, with an absorption maximum at λmax=316 nm, and additionally in the UV-A region, i.e. in the wavelength range between 320 and 400 nm, with an absorption shoulder at λsh=349 nm. The absorption coefficient ε at λmax=316 nm is ε=23260 and at λsh=349 nm is ε=13500.
# The absorption coefficient at this wavelength is 23420.
compound,measurement,setting,value
"O=C(C=Cc1ccc(O)cc1)OC[C@H]1O[C@@H](Oc2c(-c3ccc(O)cc3)oc3cc(O)cc(O)c3c2=O)[C@H](O)[C@@H](O)[C@@H]1O [Tiliroside, kaempferol 3-(6″-p-coumarylglucoside)]",inherent colour,[1],only a weak inherent colour
same,stabilising action for dibenzoylmethanes,[2],particularly high stabilising action
same,absorption shoulder λsh,[3]; UV-A region (320 to 400 nm),349 nm
same,absorption in the UV-A region (in words),"[3]; UV-A region, tiliroside compared with Eusolex 6300",significantly better absorption properties in the UVA region
same,absorption maximum λmax,[3]; UV-B region,316 nm
same,absorption coefficient ε at λmax,"[3]; at the absorption maximum in the UV-B region (tiliroside 316 nm, Eusolex 6300 300 nm)",23260
same,absorption coefficient ε at λsh,"[3]; at the shoulder λsh=349 nm, UV-A region",13500
